Patent publication US8410310B2, “Trypsin-like serine protease inhibitors, and their preparation and use” (The Medicines Company (Leipzig) GmbH, priority 2006, dated 2013)

Legend:
[1] = test system: t-PA-induced fibrinolysis in plasma; assay: Plasma fibrinolysis assay (turbidometric); format: biochemical; settings: human plasma, t-PA 50 U/mL; for IC50: read-out: IC50 on t-PA-induced fibrinolysis in plasma (median [25%; 75% percentile])
Method: (§1) Venous blood was withdrawn from the antecubital vein from healthy volunteers after written informed consent in accordance with local and federal guidelines with approval of the local review board (Ethikkommission, Klinikum Charité, Sauerbruchweg 5, 10117 Berlin). The blood was mixed with 0.11 mol/L sodium citrate (1:10). For ROTEM® analysis, whole citrated blood was used within 8 h after collection. Platelet-rich plasma (PRP) was prepared from citrated blood by centrifugation at 330×g for 10 min at room temperature, platelet-poor plasma (PPP) was collected following centrifugation at 1220×g for 12 min. The PRP was then adjusted to 3×10^8 platelets per mL using the autologous PPP. PRP was maintained at room temperature for less than 4 h before analysis. The remaining PPP was subjected to a high-speed centrifugation at 40,000×g for 30 min at 4° C. to remove any particulate material and was then stored at −70° C. until use.
(§2) The antifibrinolytic activity of Compound No. 3 in comparison to aprotinin and tranexamic acid was investigated in plasma and whole blood assays. In both assays, tissue factor was added to initiate rapid clot formation via the extrinsic pathway which produces a clot that remains stable for several hours under normal conditions. Supplementation of plasma or whole blood with tissue-type plasminogen activator (t-PA) before stimulation results in activation of endogenous plasminogen and thus fibrinolysis while the initial clot formation is not impaired. […] A final concentration of 50 U/mL and 100 U/mL in plasma and whole blood, respectively, was chosen to achieve complete lysis within about 60 min. In the presence of antifibrinolytics, clot lysis is delayed in a concentration-dependent manner.
Inhibition of fibrinolysis in plasma was examined using a turbidometric method in 96-well flat-bottom plates. The time course of clot formation and lysis, reflected by an initial increase and subsequent decrease in turbidity, was recorded by continuously measuring the optical density (OD) at 405 nm. Similar models have been used widely to study the clot lysis process in human plasma (Kim et al., J. Thromb. Haemost. 5: 1250-6, 2007) as well as its inhibition by antifibrinolytic drugs (Sperzel et al., J. Thromb. Haemost. 5: 2113-8, 2007). Frozen and thawed human plasma (PPP) was pre-incubated with test compound or vehicle (Owren's Veronal buffer) for 5 min at 37° C. […] OD at 405 nm was monitored every 45 s for 180 min at 37° C. with a microplate reader (POLARstar OPTIMA, BMG Labtech, Offenburg, Germany). Fibrinolysis was quantified as the relative decrease in OD at 45 min after the maximum OD was reached. […]

[2] = test system: t-PA-induced lysis of whole blood clots; assay: Whole blood fibrinolysis assay (ROTEM, EXTEM with t-PA); format: cell-based, human; settings: for IC50: Ly60, read-out: concentration resulting in 50% suppression of clot lysis (IC50, median [25%; 75% percentile]); for potency at inhibiting clot lysis relative to tranexamic acid: whole blood and plasma clot lysis, versus tranexamic acid
Method: as §1, §2
Fibrinolysis in whole blood was studied with rotational thromboelastometry (Luddington, Clin. Lab. Haematol. 27: 81-90, 2005) using a computerized, multi-channel ROTEM® instrument (Pentapharm, Munich, Germany) (Ganter et al., Anesth. Analg. 106: 1366-75, 2008). Activation of test samples accelerated the measurement process and enhanced reproducibility compared with conventional thromboelastography. To allow observation of fibrinolysis, ROTEM® analysis with tissue factor activation (EXTEM) was modified through addition of t-PA (Nielsen et al. Blood Coagul. Fibrinolysis 17: 75-81, 2006). Citrated blood was pre-incubated at 37° C. for 5 min with test compound or saline before tissue factor, CaCl2 and t-PA (100 U/mL final concentration) were added to start the reaction. Fibrinolysis was determined by measuring loss of clot strength with time and was recorded as Ly60 (percentage reduction of the maximum amplitude at 60 min after the onset of clotting). In control samples without inhibitor, clots were lysed completely within 60 min, such that Ly60 was above 90%. By plotting Ly60 versus test compound concentration, IC50 values for each compound were calculated.

[3] = molecular target: T1, Human factor Xa (Homo sapiens, UniProt P00742); assay: Inhibition constants against purified human serine proteases: FXa; format: biochemical; settings: for Ki: 50 mM Tris-HCl pH 8.0, 154 mM NaCl, Pefachrome FXa
T1 construct: Human factor Xa, factor XIa, factor XIIa, thrombin, and plasma kallikrein were purchased; purchased Enzyme Research Laboratories (via Haemochrom, Essen)
T1 sequence (P00742 235-488 limits assumed): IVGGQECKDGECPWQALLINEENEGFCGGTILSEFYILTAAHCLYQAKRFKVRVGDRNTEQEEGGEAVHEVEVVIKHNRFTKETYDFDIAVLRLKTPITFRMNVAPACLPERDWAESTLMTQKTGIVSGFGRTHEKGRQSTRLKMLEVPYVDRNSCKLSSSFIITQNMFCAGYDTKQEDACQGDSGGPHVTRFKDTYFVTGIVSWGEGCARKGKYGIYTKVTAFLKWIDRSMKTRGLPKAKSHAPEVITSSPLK
T1 sequence (P00742 41-179 partner limits assumed): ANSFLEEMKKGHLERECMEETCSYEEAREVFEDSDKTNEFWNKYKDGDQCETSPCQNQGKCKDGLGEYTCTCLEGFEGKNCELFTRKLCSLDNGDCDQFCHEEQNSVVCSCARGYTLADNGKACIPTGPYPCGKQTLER
Excerpt: Aprotinin and tranexamic acid were purchased from SIGMA (Schnelldorf, Germany). Human factor Xa, factor XIa, factor XIIa, thrombin, and plasma kallikrein were purchased from Enzyme Research Laboratories, and human plasmin from Chromogenix (both via Haemochrom, Essen, Germany). Various synthetic peptide chromogenic substrates used for determination of inhibition constants were obtained from Pentapharm (Basel, Switzerland), Roche (Mannheim, Germany), and Chromogenix: Chromozyme PL for plasmin, S2302 for plasma kallikrein, Pefachrome FXa for factor Xa, Chromozym XII for FXIIa, Pefachrom tPA for thrombin, and Pefachrome PCa for factor XIa. Tissue-type plasminogen activator was obtained from Boehringer Ingelheim (Ingelheim, Germany). INTEM, EXTEM and STARTEM reagents and disposables for ROTEM® measurements were obtained from Pentapharm (Munich, Germany).
Inhibition of purified human serine proteases by Compound No. 3 and aprotinin was studied using the established methods described herein in Example 3 (i.e., Stürzebecher et al., 1997). Enzyme kinetic experiments were carried out in 96-well flat-bottom plates (Brand, Wertheim, Germany) in 50 mM Tris-HCl pH 8.0, 154 mM NaCl in the presence of different substrate and inhibitor concentrations. Steady-state velocities of substrate conversion were obtained from progress curves generated by continuous monitoring of the absorbance at 405 nm with a microplate reader (Multiskan Ascent, Thermo Electron Corporation, Dreieich, Germany). […] Inhibition constants (Ki) were calculated from non-linear fits of individual data sets to the Michaelis-Menten equation for competitive inhibitors using an enzyme kinetic analysis software (SIGMA Plot® 9.0 Enzyme Kinetics Module, SSI, San Jose, Calif.). Dixon plot analysis was applied to confirm the competitive inhibition mode.

[4] = human whole blood, t-PA 100 U/mL

IC50 on t-PA-induced fibrinolysis in plasma expressed in KIU/mL ([1]; converted from nM) [KIU/mL]	IC50 of clot lysis expressed in KIU/mL ([2]; human whole blood, t-PA 100 U/mL, converted from nM) [KIU/mL]	Compound	IC50 [1] [nM]	IC50 [2, 4] [nM]	potency at inhibiting clot lysis relative to tranexamic acid [2] [fold]	Ki [3] [nM]	concentration that largely suppresses clot lysis / effective inhibition ([2]; whole blood ROTEM, t-PA-induced lysis) [nM]	stronger inhibition of FXa than aprotinin ([3]; versus aprotinin) [fold]
15	16	aprotinin	327	345	~10	55600	–	–
–	–	N=C(N)c1ccc(CNC(=O)[C@H](Cc2cccc(CN)c2)NC(=O)[C@@H](CCCc2ccccc2)NS(=O)(=O)Cc2cccc(C(=O)O)c2)cc1 [compound 3, 3-HOOC-Bzls-d-Ppg-Phe(3-Ame)-4-Amba×2 acetate]	315	150	~10	45 ± 5	600	1200
